Measurements from ChEMBL document CHEMBL2429720, “Synthesis, antimicrobial, and cytotoxicity studies of novel sulfur-linked quinolinecoumarin bisheterocycles” (Med Chem Res, 2013).
Converted amounts (≈) assume the structure as drawn.

Tests used:
[1] = tested on: NIH3T3; assay: Cytotoxicity against mouse NIH/3T3 cells after 48 hrs by MTT assay; format: cell-based; settings: NIH3T3, 48 h
[2] = tested on: Candida albicans; assay: Antifungal activity against Candida albicans ATCC 90028 at 100 ug/disk after 48 hrs by agar disk diffusion method; format: functional; settings: ATCC 90028, 48 h, read-out: DIZ
[3] = tested on: Candida albicans; assay: Antifungal activity against Candida albicans ATCC 90028 after 18 to 24 hrs by agar dilution method; format: functional
[4] = tested on: Staphylococcus aureus; assay: Antibacterial activity against Staphylococcus aureus ATCC 11632 at 100 ug/disk after 24 hrs by agar disk diffusion method; format: functional; settings: ATCC 11632, 24 h, read-out: DIZ
[5] = tested on: Staphylococcus aureus; assay: Antibacterial activity against Staphylococcus aureus ATCC 11632 after 18 to 24 hrs by agar dilution method; format: functional
[6] = tested on: Escherichia coli; assay: Antibacterial activity against Escherichia coli ATCC 25922 at 100 ug/disk after 24 hrs by agar disk diffusion method; format: functional; settings: ATCC 25922, 24 h, read-out: DIZ
[7] = tested on: Escherichia coli; assay: Antibacterial activity against Escherichia coli ATCC 25922 after 18 to 24 hrs by agar dilution method; format: functional
[8] = tested on: Staphylococcus aureus; assay: microbe, parasite or virus in culture; settings: ATCC 11632, 24 h, read-out: DIZ
Description: Antibacterial activity against Staphylococcus aureus ATCC 11632 at 10 ug/disk after 24 hrs by agar disk diffusion method

[9] = tested on: Escherichia coli; assay: microbe, parasite or virus in culture; settings: ATCC 25922, 24 h, read-out: DIZ
Description: Antibacterial activity against Escherichia coli ATCC 25922 at 10 ug/disk after 24 hrs by agar disk diffusion method

[10] = tested on: Candida albicans; assay: Antifungal activity against Candida albicans ATCC 90028 at 10 ug/disk after 48 hrs by agar disk diffusion method; format: functional; settings: ATCC 90028, 48 h, read-out: DIZ

Work on `COC(=O)CSc1c(-c2cccc(Br)c2)nc2ccccc2c1-c1ccccc1` yielded an IC50 [1] of 456 µM, a zone of inhibition at 100 µg/disc [2] of 13 mm and an MIC [3] of 12.5 µg/mL (≈ 26.9 µM). The zone of inhibition at 100 µg/disc [4] was 18 mm, the MIC [5] was 12.5 µg/mL (≈ 26.9 µM) and the zone of inhibition at 100 µg/disc [6] was 15 mm. It also gave an MIC [7] of 12.5 µg/mL (≈ 26.9 µM).
`COC(=O)CSc1c(-c2cccc(OC)c2)nc2ccccc2c1-c1ccccc1` was tested, and the zone of inhibition at 100 µg/disc [2] was 15 mm, the MIC [3] was 25 µg/mL (≈ 60.2 µM) and the zone of inhibition at 100 µg/disc [4] was 15 mm. For the same molecule, the MIC [5] was 25 µg/mL (≈ 60.2 µM), the zone of inhibition at 100 µg/disc [6] was 15 mm and the MIC [7] was 12.5 µg/mL (≈ 30.1 µM).
Work on `O=c1oc2ccccc2cc1Sc1c(-c2ccccc2)nc2ccccc2c1-c1ccccc1` yielded a zone of inhibition at 100 µg/disc [2] of 10 mm, an MIC [3] of 25 µg/mL (≈ 54.6 µM) and a zone of inhibition at 100 µg/disc [4] of 12 mm. For the same molecule, the MIC [5] was 25 µg/mL (≈ 54.6 µM), the zone of inhibition at 100 µg/disc [6] was 13 mm and the MIC [7] was 25 µg/mL (≈ 54.6 µM).
Molecule `Cc1ccc(-c2nc3ccccc3c(-c3ccccc3)c2Sc2cc3ccccc3oc2=O)cc1` has a zone of inhibition at 100 µg/disc [2] of 12 mm, an MIC [3] of 25 µg/mL (≈ 53 µM) and a zone of inhibition at 100 µg/disc [4] of 10 mm. It also gave an MIC [5] of 25 µg/mL (≈ 53 µM), a zone of inhibition at 100 µg/disc [6] of 13 mm and an MIC [7] of 25 µg/mL (≈ 53 µM).
`O=c1oc2ccccc2cc1Sc1c(-c2ccc(Cl)cc2)nc2ccccc2c1-c1ccccc1` was tested, and the zone of inhibition at 100 µg/disc [2] was 15 mm, the MIC [3] was 25 µg/mL (≈ 50.8 µM) and the zone of inhibition at 100 µg/disc [4] was 12 mm. For the same molecule, the MIC [5] was 25 µg/mL (≈ 50.8 µM), the zone of inhibition at 100 µg/disc [6] was 12 mm and the MIC [7] was 25 µg/mL (≈ 50.8 µM).
Work on `O=c1oc2ccccc2cc1Sc1c(-c2ccc(Br)cc2)nc2ccccc2c1-c1ccccc1` yielded a zone of inhibition at 100 µg/disc [2] of 20 mm, an MIC [3] of 12.5 µg/mL (≈ 23.3 µM) and a zone of inhibition at 100 µg/disc [4] of 18 mm. For the same molecule, the MIC [5] was 12.5 µg/mL (≈ 23.3 µM), the zone of inhibition at 100 µg/disc [6] was 18 mm and the MIC [7] was 12.5 µg/mL (≈ 23.3 µM).
Molecule `COc1ccc(-c2nc3ccccc3c(-c3ccccc3)c2Sc2cc3ccccc3oc2=O)cc1` has a zone of inhibition at 100 µg/disc [2] of 12 mm, an MIC [3] of 25 µg/mL (≈ 51.3 µM) and a zone of inhibition at 100 µg/disc [4] of 16 mm. For the same molecule, the MIC [5] was 25 µg/mL (≈ 51.3 µM), the zone of inhibition at 100 µg/disc [6] was 12 mm and the MIC [7] was 25 µg/mL (≈ 51.3 µM).
Molecule `O=c1oc2ccccc2cc1Sc1c(-c2ccc([N+](=O)[O-])cc2)nc2ccccc2c1-c1ccccc1` has a zone of inhibition at 100 µg/disc [2] of 18 mm, an MIC [3] of 12.5 µg/mL (≈ 24.9 µM) and a zone of inhibition at 100 µg/disc [4] of 15 mm. The MIC [5] was 25 µg/mL (≈ 49.7 µM), the zone of inhibition at 100 µg/disc [6] was 15 mm and the MIC [7] was 12.5 µg/mL (≈ 24.9 µM).
Molecule `O=c1oc2ccccc2cc1Sc1c(-c2ccc(-c3ccccc3)cc2)nc2ccccc2c1-c1ccccc1` has a zone of inhibition at 100 µg/disc [2] of 10 mm, an MIC [3] of 50 µg/mL (≈ 93.7 µM) and a zone of inhibition at 100 µg/disc [4] of 10 mm. The MIC [5] was 25 µg/mL (≈ 46.8 µM), the zone of inhibition at 100 µg/disc [6] was under 10 mm and the MIC [7] was 50 µg/mL (≈ 93.7 µM).
`O=c1oc2ccccc2cc1Sc1c(-c2ccc3ccccc3c2)nc2ccccc2c1-c1ccccc1` was tested, and the zone of inhibition at 100 µg/disc [2] was under 10 mm, the MIC [3] was 50 µg/mL (≈ 98.5 µM) and the zone of inhibition at 100 µg/disc [4] was under 10 mm. For the same molecule, the MIC [5] was 50 µg/mL (≈ 98.5 µM), the zone of inhibition at 100 µg/disc [6] was under 10 mm and the MIC [7] was 50 µg/mL (≈ 98.5 µM).
Molecule `COC(=O)CSc1c(-c2ccccc2)nc2ccccc2c1-c1ccccc1` has a zone of inhibition at 100 µg/disc [2] of 10 mm, an MIC [3] of 25 µg/mL (≈ 64.9 µM) and a zone of inhibition at 100 µg/disc [4] of 15 mm. It also gave an MIC [5] of 25 µg/mL (≈ 64.9 µM), a zone of inhibition at 100 µg/disc [6] of 15 mm and an MIC [7] of 25 µg/mL (≈ 64.9 µM).
`COC(=O)CSc1c(-c2ccc(C)cc2)nc2ccccc2c1-c1ccccc1` showed a zone of inhibition at 100 µg/disc [2] of 13 mm, an MIC [3] of 12.5 µg/mL (≈ 31.3 µM) and a zone of inhibition at 100 µg/disc [4] of 16 mm. For the same molecule, the MIC [5] was 12.5 µg/mL (≈ 31.3 µM), the zone of inhibition at 100 µg/disc [6] was 11 mm and the MIC [7] was 25 µg/mL (≈ 62.6 µM).
`COC(=O)CSc1c(-c2ccc(Cl)cc2)nc2ccccc2c1-c1ccccc1` was tested, and the zone of inhibition at 100 µg/disc [2] was 15 mm, the MIC [3] was 25 µg/mL (≈ 59.5 µM) and the zone of inhibition at 100 µg/disc [4] was 13 mm. The MIC [5] was 25 µg/mL (≈ 59.5 µM), the zone of inhibition at 100 µg/disc [6] was 12 mm and the MIC [7] was 12.5 µg/mL (≈ 29.8 µM).
`COC(=O)CSc1c(-c2ccc(Br)cc2)nc2ccccc2c1-c1ccccc1` showed a zone of inhibition at 100 µg/disc [2] of 18 mm, an MIC [3] of 12.5 µg/mL (≈ 26.9 µM) and a zone of inhibition at 100 µg/disc [4] of 18 mm. For the same molecule, the MIC [5] was 12.5 µg/mL (≈ 26.9 µM), the zone of inhibition at 100 µg/disc [6] was 20 mm and the MIC [7] was 6.25 µg/mL (≈ 13.5 µM).
`COC(=O)CSc1c(-c2ccc(OC)cc2)nc2ccccc2c1-c1ccccc1` gave a zone of inhibition at 100 µg/disc [2] of 12 mm, an MIC [3] of 25 µg/mL (≈ 60.2 µM) and a zone of inhibition at 100 µg/disc [4] of 15 mm. For the same molecule, the MIC [5] was 12.5 µg/mL (≈ 30.1 µM), the zone of inhibition at 100 µg/disc [6] was 15 mm and the MIC [7] was 12.5 µg/mL (≈ 30.1 µM).
With `COC(=O)CSc1c(-c2ccc([N+](=O)[O-])cc2)nc2ccccc2c1-c1ccccc1` the zone of inhibition at 100 µg/disc [2] was 20 mm, the MIC [3] was 12.5 µg/mL (≈ 29 µM) and the zone of inhibition at 100 µg/disc [4] was 16 mm. It also gave an MIC [5] of 12.5 µg/mL (≈ 29 µM), a zone of inhibition at 100 µg/disc [6] of 18 mm and an MIC [7] of 6.25 µg/mL (≈ 14.5 µM).
`COC(=O)CSc1c(-c2ccc(-c3ccccc3)cc2)nc2ccccc2c1-c1ccccc1` was tested, and the zone of inhibition at 100 µg/disc [2] was 10 mm, the MIC [3] was 50 µg/mL (≈ 108 µM) and the zone of inhibition at 100 µg/disc [4] was 12 mm. It also gave an MIC [5] of 25 µg/mL (≈ 54.2 µM), a zone of inhibition at 100 µg/disc [6] of 10 mm and an MIC [7] of 25 µg/mL (≈ 54.2 µM).
With `COC(=O)CSc1c(-c2ccc3ccccc3c2)nc2ccccc2c1-c1ccccc1` the zone of inhibition at 100 µg/disc [2] was 10 mm, the MIC [3] was 25 µg/mL (≈ 57.4 µM) and the zone of inhibition at 100 µg/disc [4] was 10 mm. For the same molecule, the MIC [5] was 50 µg/mL (≈ 115 µM), the zone of inhibition at 100 µg/disc [6] was 10 mm and the MIC [7] was 50 µg/mL (≈ 115 µM).
Work on `COC(=O)CSc1c(-c2cccc(Cl)c2)nc2ccccc2c1-c1ccccc1` yielded a zone of inhibition at 100 µg/disc [2] of 15 mm, an MIC [3] of 12.5 µg/mL (≈ 29.8 µM) and a zone of inhibition at 100 µg/disc [4] of 18 mm. For the same molecule, the MIC [5] was 12.5 µg/mL (≈ 29.8 µM), the zone of inhibition at 100 µg/disc [6] was 18 mm and the MIC [7] was 12.5 µg/mL (≈ 29.8 µM).
For `O=C(O)c1cn(C2CC2)c2cc(N3CCNCC3)c(F)cc2c1=O` [CIPROFLOXACIN], the zone of inhibition at 10 µg/disc [8] was 25 mm and the zone of inhibition at 10 µg/disc [9] was 28 mm.
With `Clc1ccccc1C(c1ccccc1)(c1ccccc1)n1ccnc1` [CLOTRIMAZOLE] the zone of inhibition at 10 µg/disc [10] was 28 mm and the MIC [3] was 6.25 µg/mL (≈ 18.1 µM).
